According to patent US9056833B2, “Crystalline phases of 2′-{[2-(4-methoxy-phenyl)-acetylamino]-methyl}-biphenyl-2-carboxylic acid (2-pyridin-3-yl-ethyl)-amide” (SANOFI-AVENTIS DEUTSCHLAND GMBH, priority 2009, dated 2015):
Each block holds one molecule with its values, some of them ahead of it.

What was measured:
Type in all cases: physicochemical
[1] = Thermodynamic stability of the polymorphs as a function of temperature
[2] = Dynamic vapor sorption (DVS), moisture sorption/desorption isotherms; details: 25° C.
Method: Moisture sorption/desorption isotherms were recorded on a DVS-1from Surface Measurement Systems. […] The data were evaluated with the software DVSWin V. 2.15With samples of phase 1, 2, 3and 4of compound I the following water uptake (in mass percent) as a function of the relative humidity was determined.

[3] = Maturation experiments (slurry conversion), relative stability of the polymorphs; details: investigated temperature range 0° C. to 80° C.
Method: By maturation experiments (slurry conversion) in the temperature region from 0° C. to 80° C. the relative stability of the polymorphs of compound I was investigated.
Maturation experiments (a) to (d) were performed under the specified conditions, starting from a 1:1mixture of polymorphs 1and 4. • (a) The phase mixture was suspended in ethanol. After stirring the suspension for two days at 60° C., the solid was quickly isolated by vacuum filtration. • (b) The phase mixture was suspended in butyl acetate. After stirring the suspension for two days at 60° C., the solid was quickly isolated by vacuum filtration. • (c) The phase mixture was suspended in 1-pentanol. After stirring the suspension for four hours at 80° C., the solid was quickly isolated by vacuum filtration. • (d) The phase mixture was suspended in 1-octanol. After stirring the suspension for four hours at 80° C., the solid was quickly isolated by vacuum filtration.
Maturation experiments (e) to (p) were performed by stirring the suspension under the specified conditions and isolating the solid by vacuum filtration, starting from polymorph 4. • (e) Maturation of 0.208g of compound I in 1.3ml of water/methanol (1:1) was performed at room temperature for four weeks. […]

[4] = Solubility compared to other polymorphs
[5] = Stability of chloroform solvate outside the mother liquor
[6] = Temperature-resolved X-ray powder diffraction, DSC and TGA of toluene solvate; details: on loss of solvent
Method: All X-ray powder diffraction was performed with Stoe Stadi-P transmission diffractometers using CuKα1radiation. For room temperature powder diffraction, linear position sensitive detectors were used, while for temperature-resolved XRPD image plate position sensitive detectors (IP-PSDs) were used. Unless stated otherwise, X-ray powder diffraction was performed at room temperature. Dry samples were investigated in a flat preparation whereas suspensions were investigated in quartz glass capillaries. […] The 2θ (2theta) angles in ° (degree) and the relative intensities of characteristic reflections are specified above, wherein the relative intensity of a reflection is designated as “strong” if it is more than 75% of the intensity of the most intense reflection or it is the most intense reflection itself, and as “medium” if it is between 20% and 75% of the intensity of the most intense reflection.
All DSC measurements were performed with a Mettler DSC822e (module DSC822e/700/109/414935/0025). If not indicated differently, 40μl Al crucibles with sealed lid and hole were used. All measurements were carried out in a nitrogen gas flow of 50mL/minute. The heating rate was 10° C./minute unless indicated otherwise. Temperature and heat flow were calibrated via the melting peak of an indium reference. The measured data were evaluated with the software STARe V6.1.

SMILES: COc1ccc(CC(=O)NCc2ccccc2-c2ccccc2C(=O)NCCc2cccnc2)cc1 [Polymorph 1, 2′-{[2-(4-methoxy-phenyl)-acetylamino]-methyl}-biphenyl-2-carboxylic acid (2-pyridin-3-yl-ethyl)-amide]
- temperature range in which the polymorph is thermodynamically stable [1]: below 90 °C
- water uptake (in mass percent) ([2]; relative humidity 20%, listed as Phase 1): 0.00%
- water uptake (in mass percent) ([2]; relative humidity 40%, listed as Phase 1): 0.01%
- water uptake (in mass percent) ([2]; relative humidity 60%, listed as Phase 1): 0.01%
- water uptake (in mass percent) ([2]; relative humidity 80%, listed as Phase 1): 1.36%
- relative thermodynamic stability among the known polymorphs [3]: thermodynamically most stable

SMILES: COc1ccc(CC(=O)NCc2ccccc2-c2ccccc2C(=O)NCCc2cccnc2)cc1 [Polymorph 2, 2′-{[2-(4-methoxy-phenyl)-acetylamino]-methyl}-biphenyl-2-carboxylic acid (2-pyridin-3-yl-ethyl)-amide]
- solubility compared to other polymorphs [4]: higher solubility
- thermodynamic stability (in words) [1]: metastable at any temperature
- water uptake (in mass percent) ([2]; relative humidity 20%, listed as Phase 2): 0.04%
- water uptake (in mass percent) ([2]; relative humidity 40%, listed as Phase 2): 0.05%
- water uptake (in mass percent) ([2]; relative humidity 60%, listed as Phase 2): 0.09%
- water uptake (in mass percent) ([2]; relative humidity 80%, listed as Phase 2): 1.79%

SMILES: COc1ccc(CC(=O)NCc2ccccc2-c2ccccc2C(=O)NCCc2cccnc2)cc1 [Polymorph 3, 2′-{[2-(4-methoxy-phenyl)-acetylamino]-methyl}-biphenyl-2-carboxylic acid (2-pyridin-3-yl-ethyl)-amide]
- thermodynamic stability (in words) [1]: only metastable below 90 °C
- water uptake (in mass percent) ([2]; relative humidity 20%, listed as Phase 3): 0.02%
- water uptake (in mass percent) ([2]; relative humidity 40%, listed as Phase 3): 0.03%
- water uptake (in mass percent) ([2]; relative humidity 60%, listed as Phase 3): 0.06%
- water uptake (in mass percent) ([2]; relative humidity 80%, listed as Phase 3): 0.30%

SMILES: COc1ccc(CC(=O)NCc2ccccc2-c2ccccc2C(=O)NCCc2cccnc2)cc1 [Polymorph 4, 2′-{[2-(4-methoxy-phenyl)-acetylamino]-methyl}-biphenyl-2-carboxylic acid (2-pyridin-3-yl-ethyl)-amide]
- temperature range in which the polymorph is thermodynamically stable [1]: around 90 °C
- water uptake (in mass percent) ([2]; relative humidity 20%, listed as Phase 4): 0.05%
- water uptake (in mass percent) ([2]; relative humidity 40%, listed as Phase 4): 0.02%
- water uptake (in mass percent) ([2]; relative humidity 60%, listed as Phase 4): 0.15%
- water uptake (in mass percent) ([2]; relative humidity 80%, listed as Phase 4): 1.80%

Further lines, results first:

- stability outside the mother liquor [5]: only moderately stable
- form obtained on transformation ([5]; outside the mother liquor): starts to transform to polymorph 2
SMILES: COc1ccc(CC(=O)NCc2ccccc2-c2ccccc2C(=O)NCCc2cccnc2)cc1 [chloroform solvate, 2′-{[2-(4-methoxy-phenyl)-acetylamino]-methyl}-biphenyl-2-carboxylic acid (2-pyridin-3-yl-ethyl)-amide]

- form obtained on transformation [6]: transforms to polymorph 4
SMILES: COc1ccc(CC(=O)NCc2ccccc2-c2ccccc2C(=O)NCCc2cccnc2)cc1 [toluene solvate, 2′-{[2-(4-methoxy-phenyl)-acetylamino]-methyl}-biphenyl-2-carboxylic acid (2-pyridin-3-yl-ethyl)-amide]
